Laboratory results published in US20250100962A1 (CITY OF HOPE, priority 2023, published 2025).

Assays:
[1] = test system: C2C12 myoblasts; experiment: Myogenic differentiation of C2C12 myoblasts; type: cell-based, mouse; details: Table 1 summary of CHX analogs
Procedure: Pictures were taken every day to monitor morphological progression, and proteins and RNA samples were collected on days indicated.
C2C12, C2C12 Bmal1 KD and C2C12 Scrambled control (SC) myoblasts were seeded at Day −1 at 2×105 concentration on 12 wells plates and maintained in 10% FBS until 80% confluency and treated with indicated compounds and controls in 2% FBS DMEM media to induce differentiation on Day 0. On days 3, 5 and 7 cells were fixed with 4% paraformaldehyde (from 37% Formaldehyde Baker Analyzed) and kept at 4° C. in PBS. Cells were permeabilized with Permeabilization solution of 0.5% Triton X-100 (Fisher Bioreagents CN: 9002-93-1) in PBS and blocked with Blocking solution of 1% BSA (Fisher Bioreagents CN:9048-46-8) in PBS. Primary antibodies were diluted in Washing solution of 0.01% Triton X-100 (Fisher Bioreagents CN: 9002-93-1) in PBS and left overnight at 4° C. Cells were then incubated with secondary antibodies in Washing solution at room temperature for 1 h. 1 μg/ml 4′,6′-diamidine-2′-phenylindole dihydrochloride (DAPI) was used to label for nuclei. […] To quantify the proliferation of myoblast, when needed, cells were treated with 1 μg/ml of EdU for 3 h before fixation. Detection of EdU was performed with Click-iT EdU Alexa Fluor 488 Imaging Kit before applying the immunofluorescence staining as described above.

[2] = test system: U2OS cells containing Per2::dLuc luciferase reporter; experiment: Real-time bioluminescence monitoring of Per2::Luciferase reporter in U2OS cells (LumiCycle); type: cell-based; details: for LumiCycle Result: Clock activity, Amplitude / LumiCycle Result: Clock activity, Period: Table 1; for LumiCycle Result: Clock activity, Amplitude / LumiCycle Result: Clock activity, Period / LumiCycle Result: Clock activity (overall): U2OS Per2::dLuc; for Modulatory Property: clock-modulatory classification; for LumiCycle Result: Clock activity (overall): CHX analogs screened
Procedure: U2OS cells or mouse fibroblasts (MF) containing a Per2-luciferase reporter (Yoo et al., 2004) were seeded at 4×10^5 concentration on 24 well plates and treated at 90% confluence with 1 ml 1×Fresh explant medium with desired compounds and controls. The seeding density was decided after trying several densities and choosing the one that after 24 h lead to 90% confluence. 1× Fresh explant medium was produced using 50% 2×DMEM buffer stock [DMEM powder (Gibco—Thermo Fisher CN: 12800-017), Sterile MilliQ water, pH7 1 M HEPES (Gibco—Thermo Fisher CN:15630080) and 7.5% Sodium Bicarbonate (Gibco—Thermo Fisher CN: 25080094)], 10% FBS (Cytiva), 37.9% Sterile MiliQ water, 1% PSG 100× (Gibco—Thermo Fisher CN: 10378016), 0.1% Sodium Hydroxixe (NaOH) 100 mM (Fishel Chemical CN: S318-500), 1% XenoLight D-Luciferin—Monopotassium Salt Bioluminiscent Substrate 100 mM (PerkinElmer CN: 122799). Treated cells were introduced to the LumiCycle96 (ActiMetrics) were they were cultured and Per2-luciferafe reporter luminescence was measured for 6 days. Raw and subtracted results for 5 days were exported and data was calculated as luminescence counts per second.

[3] = test system: mice; details: chow and high-fat diet; Xiong et al., 2023; cited from earlier work
[4] = test system: CLOCK protein; experiment: CLOCK protein palmitoylation (acyl-biotin exchange) and stability; type: cell-based
Source text: FIGS. 11A-11C. Analysis of CLOCK protein S-palmitoylation. FIGS. 11A-11B: Identification of CLOCK palmitoylation by acyl-biotin exchange method using hydroxylamine (HAM). […] FIG. 11C: Structural modeling of the palmitoylation pocket and the docking pose within the hydrophobic pocket that lies between the interface of CLOCK interaction with Bmal1. FIGS. 12A-12C. Palmitoylation modulates CLOCK protein stability and interaction with Bmal1. […] FIG. 12B: CLOCK palmitoylation cysteine mutations inhibit its interaction with heterodimer partner Bmal1 and Bmal1 stability by single amino acid mutations. FIG. 12C: CLOCK palmitoylation site mutations attenuated CLOCK-mediated transcription activation.

Row | Compound | Myogenesis [1] | LumiCycle Result: Clock activity, Amplitude [2] | LumiCycle Result: Clock activity (overall) [2] | also measured
1 | CCCCCCCNC(=N)NC(=N)Nc1ccc(Cl)cc1 [CM001] | No effect | Amplitude: No effect | – | –
2 | COc1ccc(-c2cc(=O)c3c(OC)c(OC)c(OC)c(OC)c3o2)cc1OC [Nobiletin] | – | – | – | anti-obesity effect [3]: strong anti-obesity effect
3 | N=C(NCCCCCCNC(=N)Nc1ccc(Cl)cc1)Nc1ccc(Cl)cc1 [CM004] | Enhanced | Amplitude: Increased | – | LumiCycle Result: Clock activity, Period [2]: Period: Shortening; Modulatory Property [2]: Activator
4 | CCCCCCCCCCCCCCC(Br)C(=O)O (centres unmarked) [2-BrP] | – | – | – | CLOCK protein stability [4]: reduces CLOCK protein stability; CLOCK palmitoylation ([4]; Flag-tagged CLOCK in HEK 293T cells): loss of CLOCK palmitoylation
5 | CCCCCCCCCCC[C@@H](C[C@@H]1OC(=O)[C@H]1CCCCCC)OC(=O)[C@H](CC(C)C)NC=O [Orlistat] | – | – | – | CLOCK protein stability [4]: reduces CLOCK protein stability
6 | N=C(NCCCCCCNC(N)=O)NC(=N)Nc1ccc(Cl)cc1 [CM008] | – | – | Cellular toxicity | –
7 | CCCCCCCNC(=N)Nc1nc2ccc(Cl)cc2[nH]1 [CM007] | – | – | No effect | –
8 | N=C(NCCCCCCNC(=N)Nc1ccc(Cl)cc1)NC(=N)Nc1ccc(Cl)cc1 [CM003] | – | – | No effect | –
9 | N=C(NCCCCCCCCCCCCCCNC(=N)NC(=N)Nc1ccc(Cl)cc1)NC(=N)Nc1ccc(Cl)cc1 [CM005] | Slight inhition | Amplitude: Increased at low | – | LumiCycle Result: Clock activity, Period [2]: Period: Lengthening; Modulatory Property [2]: Inhibitor
